Test results reported in patent US20250017964A1, “ENGINEERING OR INDUCING PDGF AND/OR PDGFR SIGNALING TO ENHANCE NK CELL THERAPY” (City of Hope, priority 2021, published 2025).

Legend:
NK cells = assay: NK cell effector functions and surface receptors, flow cytometry; type: cell-based, human; conditions: IL-15-primed NK cells (10 ng/ml), PDGF ligand 50 ng/ml, 48 h
Description: FIGS. 3A-3K. […] (A-E) Primary NK cells were treated with IL-15 (10 ng/ml) in the presence of PDGF-B (50 ng/ml) or PDGF-D (50 ng/ml) for 48 h. Expression levels of IFN-γ, TNF-α, granzyme B, perforin, and CD107a were examined by flow cytometry (n=5). (F-K) Primary NK cells were treated with IL-15 (10 ng/ml) plus PDGF-D (50 ng/ml) in the presence of anti-NKp44 (10 βg/ml) or anti-PDGFRβ (10 μg/ml) for 48 h. Expression levels of IFN-γ, TNF-α, and CD107a were examined by flow cytometry (n=3). Data represent three independent experiments. Data shown are means±SD. NS, not significant. *P<0.05, **P<0.01, and ***P<0.001.
FIGS. 10A-10K. […] (A-E) Representative histograms and summary data of IFN-γ, TNF-α, granzyme B, perforin, and CD107a in PDGFRβ^+ and PDGFRβ^− NK cells. Cells were gated on CD56^+PDGFRβ^+ or CD56^+PDGFRβ^− cells. (F) PDGFRβ^+ and PDGFRβ^− NK cells were sorted by flow cytometry and co-cultured with ^51 Cr-labeled K562 cells in a 96-well V-bottom plate at ratios of 5:1, 2.5:1, or 1.25:1 for 4 h at 37° C. in a 5% CO2 incubator. The supernatant was harvested and analyzed using a microbeta scintillation counter (n=3). […]
Cells were stained with the indicated cell-surface markers and/or fixed/permeabilized using a Fixation/Permeabilization Kit (eBioscience). […] Data were analyzed using NovoExpress software (Agilent Technologies).

PDGFRβ = PDGFRβ localisation: immunofluorescence and immunoblot of cell fractions; type: cell-based, human
Description: FIGS. 1A-1J. IL-15 induces PDGFRβ expression in human NK cells. (A-C) NK cells were purified from PBMCs of healthy donors and stimulated with IL-15 (10 ng/ml) for 24 h. Expression levels of PDGFRα and PDGFRβ were examined by flow cytometry. Data shown are representative dot plots (A), percentages (B), and mean fluorescence intensity (MFI) of PDGFRβ in NK cells (C) (n=20). Resting NK cells were used as the control. (D-E) NK cells were treated with various doses of IL-15 for 24 h (D) or with the same dose of IL-15 (10 ng/ml) at the indicated times (E). Data shown are the percentages of PDGFRβ^+ NK cells among total NK cells (n=5). (F) Immunofluorescence analysis of PDGFRβ expression on resting and IL-15-treated NK cells. Sodium-potassium ATPase was used as a cell membrane marker. Bar=20 μm. (G) Expression of PDGFRβ in the cytoplasmic, nuclear, and cell membrane fractions of NK cells determined by immunoblotting. […] Expression levels of PDGFRβ were then determined by flow cytometry. […]
RNA was isolated using an RNeasy Mini Kit (QIAGEN) and reversely transcribed to cDNA with a PrimeScript RT Reagent Kit with gDNA Eraser (Takara Bio) according to the manufacturer's protocol. mRNA expression levels were analyzed using SYBR Green qPCR Master Mix and a QuantStudio 12K Flex Real-Time PCR System (both from Thermo Fisher Scientific). […]

| Substance | expression of IFN-γ, TNF-α, perforin, and CD107a (NK cells) | expression of granzyme B (NK cells) | PDGFRβ localisation by immunofluorescence (PDGFRβ; IL-15-treated versus resting NK cells) | PDGFRβ in cytoplasmic, nuclear and cell membrane fractions by immunoblotting (PDGFRβ; after stimulation by IL-15) |
| --- | --- | --- | --- | --- |
| PDGF-D: recombinant human PDGF-DD (1159-SB-025), R&D Systems | induced | not granzyme B |  |  |
| IL-15: recombinant human IL-15 (200-15); recombinant murine IL-15 in the mouse NK cell test |  |  | expressed on the membrane | enriched in the cytoplasm and translocated to the cell membrane |
